Results reported in patent US20050232975A1, “Composition and method to improve quality and yield of meat products” (priority 2002, published 2005).

Columns and labels:
Assay type in all cases: in vivo
[1] = Vitamin C in the blood after oral administration to cattle
Description: Applicants have learned that oral administration of Vitamin C to cattle results in measurable Vitamin C in the blood in about 45 minutes. These blood levels reach a maximum level between about 45 minutes and about 2 hours. In certain embodiments, Applicants orally administer their composition to a meat-producing animal about 45 minutes prior to harvest. In certain embodiments, Applicants orally administer their composition to a meat-producing animal about 2 hours prior to harvest. In certain embodiments, Applicants orally administer their composition to a meat-producing animal about 6 hours prior to harvest. In certain embodiments, Applicants orally administer their composition to a meat-producing animal about 18 hours prior to harvest. In certain embodiments, Applicants orally administer their composition to a meat-producing animal about 24 hours prior to harvest. In certain embodiments, Applicants orally administer their composition to a meat-producing animal about 48 hours prior to harvest

beef cattle [2] = experiment: Example I: water retention (drip loss, moisture, free/bound/immobile water) of meat cuts after one-time oral administration to beef cattle pre-harvest; design: Total moisture: unit not given here; details: about 6 hours prior to harvest
Description: To study the dose/response efficacy of a one-time administration of Vitamin C to beef cattle on the water retention of various cuts of meat prepared post-harvest, Applicants' studied four (4) treatments. Those treatments were is administered orally to 4 head of cattle about 6 hours prior to harvest. In a first control treatment, no Vitamin C was administered. In a second treatment, the animal's feed included about 50 grams of a phosphorylated Vitamin C sold in commerce by Roche Vitamins, Inc. under the name Rovimix® Stay-C®. In a third treatment, the animal's feed included about 100 grams of Rovimix® Stay-C®. In a fourth treatment, the animal's feed included about 150 grams of Rovimix® Stay-C®. Table I summarizes the results of this Example I. In treatments 2, 3, and 4, the phosphorylated Vitamin C was disposed in about 200 grams of grapefruit pulp. That Vitamin C/grapefruit pulp was orally administered to each of the cattle as a one-time drench. In treatment 1, the control cattle were administered the normal diet. By “LD,” Applicants mean meat products comprising the Longissimus dorsi muscle. These cuts are sold in commerce as, for example, strip loins. By “SM,” Applicants mean meat products comprising the Semimembranosus/adductor muscle. These cuts are sold in commerce as, for example, top round or inside round. By “TRI,” Applicants mean products comprising the triceps brachii muscle sometimes called the shoulder clod. These cuts are sold in commerce as, for example, beef roasts.

beef cattle [3] = experiment: Example II: pH of meat cuts post-harvest after one-time oral administration to beef cattle pre-harvest; details: about 6 hours prior to harvest
Description: To study the dose/response efficacy of a one-time administration of Vitamin C to beef cattle on the pH of various cuts of meat prepared post-harvest, Applicants' studied four (4) treatments. Those treatments were is administered orally to 4 head of cattle about 6 hours prior to harvest. In a first control treatment, no Vitamin C was administered. In a second treatment, the animal's feed included about 50 grams of a phosphorylated Vitamin C sold in commerce by Roche Vitamins, Inc. under the name Rovimix® Stay-C®. In a third treatment, the animal's feed included about 100 grams of Rovimix® Stay-C®. In a fourth treatment, the animal's feed included about 150 grams of Rovimix® Stay-C®.
In treatments 2, 3, and 4, the phosphorylated Vitamin C was disposed in about 200 grams of grapefruit pulp. That Vitamin C/grapefruit pulp was orally administered to each of the cattle as a one-time bolus. In treatment 1, the control cattle were administered their normal diet.

[4] = 0 min after harvest, 50 grams oral
[5] = 0 min after harvest, 100 grams oral
[6] = 0 min after harvest, 150 grams oral
[7] = 30 min after harvest, 50 grams oral
[8] = 30 min after harvest, 100 grams oral
[9] = 30 min after harvest, 150 grams oral
[10] = 60 min after harvest, 50 grams oral
[11] = 60 min after harvest, 100 grams oral
[12] = 60 min after harvest, 150 grams oral
[13] = 90 min after harvest, 50 grams oral
[14] = 90 min after harvest, 100 grams oral
[15] = 90 min after harvest, 150 grams oral
[16] = 120 min after harvest, 50 grams oral
[17] = 120 min after harvest, 100 grams oral
[18] = 120 min after harvest, 150 grams oral
[19] = 150 min after harvest, 50 grams oral
[20] = 150 min after harvest, 100 grams oral
[21] = 150 min after harvest, 150 grams oral
[22] = 180 min after harvest, 50 grams oral
[23] = 180 min after harvest, 100 grams oral
[24] = 180 min after harvest, 150 grams oral

time to measurable Vitamin C in the blood ([1]; bovine, in vivo, po): about 45 minutes
time at which blood levels reach a maximum level ([1]; oral administration to cattle): about 45 minutes and about 2 hours
SMILES: O=C1O[C@H]([C@@H](O)CO)C(O)=C1O [Vitamin C, L-ascorbic acid]
Percent moisture (beef cattle [2]; LD cut, 50 grams oral): 0.7021
Total moisture (beef cattle [2]; LD cut, 50 grams oral): 384.78
Total moisture (beef cattle [2]; LD cut, 100 grams oral): 366.33
Bound water (beef cattle [2]; LD cut, 150 grams oral): 78.6805%
Free water (beef cattle [2]; LD cut, 150 grams oral): 21.3195%
Immobile water (beef cattle [2]; LD cut, 150 grams oral): 57.3609%
Total moisture (beef cattle [2]; LD cut, 150 grams oral): 354.2
Bound water (beef cattle [2]; SM cut, 50 grams oral): 80.5196%
Free water (beef cattle [2]; SM cut, 50 grams oral): 19.4804%
Immobile water (beef cattle [2]; SM cut, 50 grams oral): 61.0392%
Percent moisture (beef cattle [2]; SM cut, 50 grams oral): 0.6522
Total moisture (beef cattle [2]; SM cut, 50 grams oral): 353.36
Bound water (beef cattle [2]; SM cut, 100 grams oral): 83.959%
Free water (beef cattle [2]; SM cut, 100 grams oral): 16.041%
Immobile water (beef cattle [2]; SM cut, 100 grams oral): 67.918%
Total moisture (beef cattle [2]; SM cut, 100 grams oral): 365.7
Bound water (beef cattle [2]; SM cut, 150 grams oral): 75.6853%
Free water (beef cattle [2]; SM cut, 150 grams oral): 24.3147%
Immobile water (beef cattle [2]; SM cut, 150 grams oral): 51.3706%
Total moisture (beef cattle [2]; SM cut, 150 grams oral): 371.99
Bound water (beef cattle [2]; TRI cut, 50 grams oral): 77.269%
Free water (beef cattle [2]; TRI cut, 50 grams oral): 22.731%
Immobile water (beef cattle [2]; TRI cut, 50 grams oral): 54.5381%
Percent moisture (beef cattle [2]; TRI cut, 50 grams oral): 0.7019
Total moisture (beef cattle [2]; TRI cut, 50 grams oral): 376.45
Total moisture (beef cattle [2]; TRI cut, 100 grams oral): 361.8
Bound water (beef cattle [2]; TRI cut, 150 grams oral): 81.0096%
Free water (beef cattle [2]; TRI cut, 150 grams oral): 18.9904%
Immobile water (beef cattle [2]; TRI cut, 150 grams oral): 62.0192%
Total moisture (beef cattle [2]; TRI cut, 150 grams oral): 399.11
Measured pH Of Beef Roast (beef cattle [3]; [4]): 6.82
Measured pH Of Strip Loin (beef cattle [3]; [4]): 6.78
Measured pH Of Top Round Cuts (beef cattle [3]; [4]): 6.70
Measured pH Of Beef Roast (beef cattle [3]; [5]): 6.73
Measured pH Of Strip Loin (beef cattle [3]; [5]): 6.78
Measured pH Of Top Round Cuts (beef cattle [3]; [5]): 6.70
Measured pH Of Beef Roast (beef cattle [3]; [6]): 6.77
Measured pH Of Strip Loin (beef cattle [3]; [6]): 6.76
Measured pH Of Top Round Cuts (beef cattle [3]; [6]): 6.64
Measured pH Of Beef Roast (beef cattle [3]; [7]): 6.41
Measured pH Of Strip Loin (beef cattle [3]; [7]): 6.45
Measured pH Of Top Round Cuts (beef cattle [3]; [7]): 6.46
Measured pH Of Beef Roast (beef cattle [3]; [8]): 6.43
Measured pH Of Strip Loin (beef cattle [3]; [8]): 6.45
Measured pH Of Top Round Cuts (beef cattle [3]; [8]): 6.44
Measured pH Of Beef Roast (beef cattle [3]; [9]): 6.44
Measured pH Of Strip Loin (beef cattle [3]; [9]): 6.36
Measured pH Of Top Round Cuts (beef cattle [3]; [9]): 6.47
Measured pH Of Beef Roast (beef cattle [3]; [10]): 6.19
Measured pH Of Strip Loin (beef cattle [3]; [10]): 6.22
Measured pH Of Top Round Cuts (beef cattle [3]; [10]): 6.12
Measured pH Of Beef Roast (beef cattle [3]; [11]): 6.19
Measured pH Of Strip Loin (beef cattle [3]; [11]): 6.25
Measured pH Of Top Round Cuts (beef cattle [3]; [11]): 6.36
Measured pH Of Beef Roast (beef cattle [3]; [12]): 6.26
Measured pH Of Strip Loin (beef cattle [3]; [12]): 6.22
Measured pH Of Top Round Cuts (beef cattle [3]; [12]): 6.20
Measured pH Of Beef Roast (beef cattle [3]; [13]): 6.11
Measured pH Of Strip Loin (beef cattle [3]; [13]): 6.00
Measured pH Of Top Round Cuts (beef cattle [3]; [13]): 5.84
Measured pH Of Beef Roast (beef cattle [3]; [14]): 6.05
Measured pH Of Strip Loin (beef cattle [3]; [14]): 6.02
Measured pH Of Top Round Cuts (beef cattle [3]; [14]): 6.05
Measured pH Of Beef Roast (beef cattle [3]; [15]): 6.06
Measured pH Of Strip Loin (beef cattle [3]; [15]): 6.07
Measured pH Of Top Round Cuts (beef cattle [3]; [15]): 5.91
Measured pH Of Beef Roast (beef cattle [3]; [16]): 6.10
Measured pH Of Strip Loin (beef cattle [3]; [16]): 5.83
Measured pH Of Top Round Cuts (beef cattle [3]; [16]): 5.75
Measured pH Of Beef Roast (beef cattle [3]; [17]): 5.96
Measured pH Of Strip Loin (beef cattle [3]; [17]): 5.78
Measured pH Of Top Round Cuts (beef cattle [3]; [17]): 5.81
Measured pH Of Beef Roast (beef cattle [3]; [18]): 5.91
Measured pH Of Strip Loin (beef cattle [3]; [18]): 5.88
Measured pH Of Top Round Cuts (beef cattle [3]; [18]): 5.78
Measured pH Of Beef Roast (beef cattle [3]; [19]): 6.01
Measured pH Of Strip Loin (beef cattle [3]; [19]): 5.75
Measured pH Of Top Round Cuts (beef cattle [3]; [19]): 5.60
Measured pH Of Beef Roast (beef cattle [3]; [20]): 5.89
Measured pH Of Strip Loin (beef cattle [3]; [20]): 5.76
Measured pH Of Top Round Cuts (beef cattle [3]; [20]): 5.59
Measured pH Of Beef Roast (beef cattle [3]; [21]): 5.80
Measured pH Of Strip Loin (beef cattle [3]; [21]): 5.66
Measured pH Of Top Round Cuts (beef cattle [3]; [21]): 5.67
Measured pH Of Beef Roast (beef cattle [3]; [22]): 5.87
Measured pH Of Strip Loin (beef cattle [3]; [22]): 5.67
Measured pH Of Top Round Cuts (beef cattle [3]; [22]): 5.53
Measured pH Of Beef Roast (beef cattle [3]; [23]): 5.83
Measured pH Of Strip Loin (beef cattle [3]; [23]): 5.59
Measured pH Of Top Round Cuts (beef cattle [3]; [23]): 5.55
Measured pH Of Beef Roast (beef cattle [3]; [24]): 5.79
Measured pH Of Strip Loin (beef cattle [3]; [24]): 5.50
Measured pH Of Top Round Cuts (beef cattle [3]; [24]): 5.57
